pIC50: −log10 of the molar value.
Target: T1, ZIKV NS2B/NS3 protease (Zika virus, UniProt Q32ZE1)
T1 construct: cut from ZIKV genome polyprotein
Experiment: fluorogenic protease assay, AMC release
Format: biochemical

T1 sequence (Q32ZE1 1499-1668): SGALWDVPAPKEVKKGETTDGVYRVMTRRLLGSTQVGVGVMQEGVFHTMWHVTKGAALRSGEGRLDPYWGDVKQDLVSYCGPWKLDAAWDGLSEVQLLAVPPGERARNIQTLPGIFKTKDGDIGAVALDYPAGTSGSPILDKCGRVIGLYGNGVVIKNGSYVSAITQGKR
T1 sequence (Q32ZE1 1417-1463): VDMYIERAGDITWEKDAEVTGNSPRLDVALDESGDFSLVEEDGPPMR

SMILES | pIC50
C=C[C@@H]1C[C@]1(NC(=O)[C@@H]1C[C@@H](Oc2ncc(OC)c3ccc(Cl)cc23)CN1C(=O)[C@@H](NC(=O)OC(C)(C)C)C(C)(C)C)C(=O)NS(=O)(=O)C1CC1 [Asunaprevir] | 5.22
COc1ccc2c(O[C@@H]3C[C@H]4C(=O)N[C@]5(C(=O)NS(=O)(=O)C6CC6)C[C@H]5/C=C\CCCCN(C)C(=O)[C@@H]4C3)cc(-c3nc(C(C)C)cs3)nc2c1C [Simeprevir] | 5.59
